{"source": "ChEMBL document CHEMBL3297711", "about": "“Application of encoded library technology (ELT) to a protein-protein interaction target: discovery of a potent class of integrin lymphocyte function-associated antigen 1 (LFA-1) antagonists” (Bioorg Med Chem, 2014)", "key": {"Integrin alpha-L": {"molecular_target": "T1, Integrin alpha-L (Homo sapiens, UniProt P20701)", "T1 sequence (P20701 whole entry)": "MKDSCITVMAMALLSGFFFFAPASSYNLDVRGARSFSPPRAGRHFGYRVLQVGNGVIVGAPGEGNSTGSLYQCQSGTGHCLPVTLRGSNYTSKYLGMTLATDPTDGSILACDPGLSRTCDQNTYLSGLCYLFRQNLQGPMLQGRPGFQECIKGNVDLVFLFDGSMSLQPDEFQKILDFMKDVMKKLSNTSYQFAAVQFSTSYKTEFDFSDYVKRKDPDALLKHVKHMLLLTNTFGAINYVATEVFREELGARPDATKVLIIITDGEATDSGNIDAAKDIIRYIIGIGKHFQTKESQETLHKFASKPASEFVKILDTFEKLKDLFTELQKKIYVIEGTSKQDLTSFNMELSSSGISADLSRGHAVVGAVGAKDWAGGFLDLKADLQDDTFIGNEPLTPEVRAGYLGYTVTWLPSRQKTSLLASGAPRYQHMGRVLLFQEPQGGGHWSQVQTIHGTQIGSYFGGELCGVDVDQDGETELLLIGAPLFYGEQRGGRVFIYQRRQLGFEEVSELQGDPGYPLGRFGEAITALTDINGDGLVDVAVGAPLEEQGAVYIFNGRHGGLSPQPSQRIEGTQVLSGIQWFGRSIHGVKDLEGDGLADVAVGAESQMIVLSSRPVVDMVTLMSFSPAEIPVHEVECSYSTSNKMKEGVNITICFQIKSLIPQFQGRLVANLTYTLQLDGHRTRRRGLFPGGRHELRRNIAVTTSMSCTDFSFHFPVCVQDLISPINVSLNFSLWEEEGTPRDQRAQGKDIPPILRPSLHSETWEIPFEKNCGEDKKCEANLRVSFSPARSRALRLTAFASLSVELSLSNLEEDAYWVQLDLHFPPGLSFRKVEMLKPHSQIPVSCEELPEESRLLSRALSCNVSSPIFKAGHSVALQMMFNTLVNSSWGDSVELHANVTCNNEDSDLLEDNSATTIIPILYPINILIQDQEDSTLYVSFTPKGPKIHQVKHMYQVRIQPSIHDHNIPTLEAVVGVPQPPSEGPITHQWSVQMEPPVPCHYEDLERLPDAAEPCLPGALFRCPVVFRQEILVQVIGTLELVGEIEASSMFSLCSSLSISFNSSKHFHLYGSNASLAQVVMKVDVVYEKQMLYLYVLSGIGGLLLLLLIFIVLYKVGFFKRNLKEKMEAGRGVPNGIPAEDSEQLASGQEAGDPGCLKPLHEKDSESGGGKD", "test": "(§1) Antagonist activity at C-terminal 6xHis-tagged LFA-1 LBD (unknown origin) expressed in Escherichia coli assessed as inhibition of interaction with ICAM-1 preincubated for 30 mins followed by ICAM-1 addition measured after 60 mins by ELISA"}, "[1]": {"molecular_target": "T2, Integrin alpha-L (Homo sapiens) (UniProt P20701)", "T2 sequence (whole entry)": "T1 sequence (P20701 whole entry)", "test": "Antagonist activity at wild type LFA-1 in human Jurkat cells assessed as inhibition of PMA-stimulated cell adhesion to ICAM-1 at 50 uM incubated for 45 mins under dark condition by microplate fluorimetric analysis", "type": "cell-based"}, "K562 [2]": {"tested_on": "K562", "test": "Allosteric antagonist activity at LFA-1 K287C/K294C double mutant (unknown origin) transfected in human K562 cells assessed as inhibition of cell adhesion to ICAM-1 at 50 uM incubated for 30 mins under dark condition by microplate fluorimetric analysis in presence of DTT", "type": "cell-based"}, "[3]": {"molecular_target": "T2, Integrin alpha-L (Homo sapiens)", "test": "Allosteric antagonist activity at wild type LFA-1 (unknown origin) transfected in human K562 cells assessed as inhibition of cell adhesion to ICAM-1 at 50 uM incubated for 30 mins under dark condition by microplate fluorimetric analysis", "type": "cell-based"}, "K562 [4]": {"tested_on": "K562", "test": "Allosteric antagonist activity at LFA-1 K287C/K294C double mutant (unknown origin) transfected in human K562 cells assessed as inhibition of cell adhesion to ICAM-1 at 50 uM incubated for 30 mins under dark condition by microplate fluorimetric analysis in absence of DTT", "type": "cell-based"}, "[5]": {"molecular_target": "T2, Integrin alpha-L (Homo sapiens)", "test": "as §1"}, "[6]": {"molecular_target": "T2, Integrin alpha-L (Homo sapiens)", "test": "Binding affinity to LFA-1 (unknown origin) transfected in human K562 cells by FACS analysis relative to control", "type": "cell-based"}}, "note": "pIC50: −log10 of the molar value. Calls of active or inactive are those of the source. No cut-off for these calls is given here."}
{"smiles": "CCNC(=O)C1(Nc2nc(NCC)nc(N3CC4CC3CN4C(=O)c3cccc(C(F)(F)F)c3)n2)Cc2ccccc2C1", "note": "(stereo not drawn)", "values": [{"measurement": "pIC50", "setting": "Integrin alpha-L", "value": "< 5.00"}]}
{"smiles": "CCNC(=O)C1(Nc2nc(NCCc3ccc(Cl)c(Cl)c3)nc(N3CC4CC3CN4C(=O)c3cccc(C(F)(F)F)c3)n2)Cc2ccccc2C1", "note": "(stereo not drawn)", "values": [{"measurement": "inhibition", "setting": "[1]", "value": "Active"}, {"measurement": "inhibition", "setting": "K562 [2]", "value": "Active"}, {"measurement": "inhibition", "setting": "[3]", "value": "Active"}, {"measurement": "inhibition", "setting": "K562 [4]", "value": "inactive"}, {"measurement": "inhibition", "setting": "[5]", "value": "Dose-dependent effect"}, {"measurement": "pIC50", "setting": "Integrin alpha-L", "value": 7.64}]}
{"smiles": "CCNC(=O)C1(Nc2nc(N[C@H](C)c3ccccc3)nc(N3CC4CC3CN4C(=O)c3cccc(C(F)(F)F)c3)n2)Cc2ccccc2C1", "note": "(stereo partly drawn)", "values": [{"measurement": "pIC50", "setting": "Integrin alpha-L", "value": "< 5.00"}]}
{"smiles": "CCNC(=O)C1(Nc2nc(NCCc3ccc(Cl)c(Cl)c3)nc(N3CCCC3)n2)Cc2ccccc2C1", "values": [{"measurement": "pIC50", "setting": "Integrin alpha-L", "value": 4.89}]}
{"smiles": "CCNC(=O)C1(Nc2nc(N[C@@H](C)c3ccc(Br)cc3)nc(N3CC4CC3CN4S(=O)(=O)c3ccccc3OC(F)(F)F)n2)Cc2ccccc2C1", "note": "(stereo partly drawn)", "values": [{"measurement": "inhibition", "setting": "[1]", "value": "Active"}, {"measurement": "inhibition", "setting": "K562 [2]", "value": "Active"}, {"measurement": "inhibition", "setting": "[3]", "value": "Active"}, {"measurement": "inhibition", "setting": "K562 [4]", "value": "inactive"}, {"measurement": "inhibition", "setting": "[5]", "value": "Dose-dependent effect"}, {"measurement": "pIC50", "setting": "Integrin alpha-L", "value": 6.93}]}
{"smiles": "O=C(c1cccc(C(F)(F)F)c1)N1CC2CC1CN2c1nc(NCCc2ccc(Cl)c(Cl)c2)nc(NC2CCCC2)n1", "note": "(stereo not drawn)", "values": [{"measurement": "pIC50", "setting": "Integrin alpha-L", "value": "< 5.00"}]}
{"smiles": "CCN1/C(=C/C=C/C2=[N+](CCCCCC(=O)NCCCCNC(=O)C3(Nc4nc(NCCc5ccc(Cl)c(Cl)c5)nc(N5CC6CC5CN6C(=O)c5cccc(C(F)(F)F)c5)n4)Cc4ccccc4C3)c3ccc(S(=O)(=O)O)cc3C2(C)C)C(C)(C)c2cc(S(=O)(=O)O)ccc21", "note": "(stereo not drawn)", "values": [{"measurement": "fold change (FC)", "setting": "[6]", "value": 3}, {"measurement": "pIC50", "setting": "Integrin alpha-L", "value": 7.00}]}
{"smiles": "O=C(c1cccc(C(F)(F)F)c1)N1CC2CC1CN2c1nc(NCCc2ccc(Cl)c(Cl)c2)nc(NC2(C(=O)O)Cc3ccccc3C2)n1", "note": "(stereo not drawn)", "values": [{"measurement": "pIC50", "setting": "Integrin alpha-L", "value": 7.43}]}
{"smiles": "CCN1/C(=C/C=C/C2=[N+](CCCCCC(=O)NCCCCNC(=O)C3(Nc4nc(NCCc5ccc(Cl)c(Cl)c5)nc(N5CC6CC5CN6S(=O)(=O)c5cccc(C(F)(F)F)c5)n4)Cc4ccccc4C3)c3ccc(S(=O)(=O)O)cc3C2(C)C)C(C)(C)c2cc(S(=O)(=O)O)ccc21", "note": "(stereo not drawn)", "values": [{"measurement": "fold change (FC)", "setting": "[6]", "value": 2}, {"measurement": "pIC50", "setting": "Integrin alpha-L", "value": 7.55}]}
{"smiles": "O=C(O)C1(Nc2nc(NCCc3ccc(Cl)c(Cl)c3)nc(N3CC4CC3CN4S(=O)(=O)c3cccc(C(F)(F)F)c3)n2)Cc2ccccc2C1", "note": "(stereo not drawn)", "values": [{"measurement": "pIC50", "setting": "Integrin alpha-L", "value": 7.19}]}
{"smiles": "CCNC(=O)C1(Nc2nc(N[C@@H](C)c3ccccc3)nc(N3CC4CC3CN4C(=O)c3cccc(C(F)(F)F)c3)n2)Cc2ccccc2C1", "note": "(stereo partly drawn)", "values": [{"measurement": "pIC50", "setting": "Integrin alpha-L", "value": 6.74}]}
{"smiles": "O=C(c1cccc(C(F)(F)F)c1)N1CC2CC1CN2c1nc(NCCc2ccc(Cl)c(Cl)c2)nc(NC2Cc3ccccc3C2)n1", "note": "(stereo not drawn)", "values": [{"measurement": "pIC50", "setting": "Integrin alpha-L", "value": 6.45}]}
{"smiles": "CCNC(=O)C1(Nc2nc(NCCc3ccccc3)nc(N3CC4CC3CN4C(=O)c3cccc(C(F)(F)F)c3)n2)Cc2ccccc2C1", "note": "(stereo not drawn)", "values": [{"measurement": "pIC50", "setting": "Integrin alpha-L", "value": 6.31}]}
{"smiles": "CCNC(=O)C1(Nc2nc(NCCc3ccc(Cl)c(Cl)c3)nc(N3CC4CC3CN4S(=O)(=O)c3ccccc3OC(F)(F)F)n2)Cc2ccccc2C1", "note": "(stereo not drawn)", "values": [{"measurement": "inhibition", "setting": "[1]", "value": "Active"}, {"measurement": "inhibition", "setting": "K562 [2]", "value": "Active"}, {"measurement": "inhibition", "setting": "[3]", "value": "Active"}, {"measurement": "inhibition", "setting": "K562 [4]", "value": "inactive"}, {"measurement": "inhibition", "setting": "[5]", "value": "Dose-dependent effect"}, {"measurement": "pIC50", "setting": "Integrin alpha-L", "value": 7.66}]}
{"smiles": "CCNC(=O)C1(Nc2nc(NCc3ccccc3)nc(N3CC4CC3CN4C(=O)c3cccc(C(F)(F)F)c3)n2)Cc2ccccc2C1", "note": "(stereo not drawn)", "values": [{"measurement": "pIC50", "setting": "Integrin alpha-L", "value": 5.10}]}
{"smiles": "CCNC(=O)C1(Nc2nc(N[C@@H](C)c3ccc(Br)cc3)nc(N3CC4CC3CN4C(=O)c3cccc(C(F)(F)F)c3)n2)Cc2ccccc2C1", "note": "(stereo partly drawn)", "values": [{"measurement": "inhibition", "setting": "[1]", "value": "Active"}, {"measurement": "inhibition", "setting": "K562 [2]", "value": "Active"}, {"measurement": "inhibition", "setting": "[3]", "value": "Active"}, {"measurement": "inhibition", "setting": "K562 [4]", "value": "inactive"}, {"measurement": "inhibition", "setting": "[5]", "value": "Dose-dependent effect"}, {"measurement": "pIC50", "setting": "Integrin alpha-L", "value": 7.80}]}
